≈ marks a conversion by molar mass, not a printed value. Where two headings read alike, the source gives them in different places.
Tests used:
Assay type in all cases: cell-based, Staphylococcus aureus
[1] = tested on: MRSA ATCC33592; experiment: Antibacterial activity assay (MIC, broth microdilution); settings: for MIC: Staphylococcus aureus
[2] = tested on: MRSA ATCC33591; experiment: as above; settings: for MIC: Staphylococcus aureus
[3] = tested on: S. aureus NCTC8325 persister cells; experiment: Persister killing assay; settings: SC5005 16×MIC, 4 mg/L; FIG. 1
Experimental: (§1) The number of viable bacteria in broth after each exposure period was enumerated by a cfu assay and expressed as cfu/mL; the data shown are the mean±SD (standard deviation) of independent experiments. […] The number of viable bacteria in the broth after each exposure period was calculated by a cfu assay (cfu/mL); the data are shown as the mean±SD of three independent experiments (n=3 for each group). Since the standard deviation of each point is very small, the error line is not shown in each graph. The horizontal dashed line in the upper left graph and the upper right graph represents […] of the bacterial cells killed. In addition, the blank controls in FIG. 1 are shown as filled diamonds.
(§2) Bacteria were collected by centrifugation at 4000×g for 10 min at 4° C., washed with ice-cold PBS, and suspended in PBS with test agents. Controls received DMSO and ethanol vehicles at concentrations equal to those for drug-treated bacteria. At the designated times, the number of viable bacteria was assessed by serial dilution of a 100 μL aliquot bacterial suspension in PBS and then spread onto LB agar plates. After incubation at 37° C. for 18-24 hours, the number of colonies was counted and expressed as cfu/mL.

[4] = tested on: MRSA USA300 persister cells; experiment: Persister killing assay; settings: SC5005 16×MIC, 4 mg/L; FIG. 1
Experimental: as §1, §2

[5] = tested on: biofilms of S. aureus NCTC8325; experiment: Biofilm eradication assay; settings: 24 hours; FIG. 2
Experimental: (§3) FIG. 2: The biofilms of S. aureus NCTC8325 (the upper left graph) and MRSA USA300 (the upper right graph) were treated with increasing concentrations of blank control (Mock), DHA, daptomycin (DAP), vancomycin (VAN), SC5005, and SC5005 in combination with DHA for 24 hours. The number of viable bacteria was then determined using a cfu assay. The data represent individual experiments and are shown as the mean±SD (n=3 per group). ns, nonsignificant, p>0.05; *p<0.05; **p<0.01; ***p<0.001. (The lower left graph) the biofilms of MRSA USA300 were treated with blank control (Mock) or SC5005 along with 80 mg/L DHA for 1, 3 or 10 minute(s). The viable bacteria in the biofilms harvested and enumerated using a cfu assay. The data represent independent experiments and are shown as mean±SD (n=3 per group). ns, nonsignificant, p>0.05; *p<0.05; **p<0.01; ***p<0.001 (The lower right graph) RAW264.7 cells were exposed to a blank control (Mock) or increasing concentrations of SC5005 and 80 mg/L DHA for […]. The viability of cells was determined by the MTT assay and expressed as a percentage relative to mock (DMSO and ethanol)-treated cells. The data shown are the mean±SD (n=3 per group).
(§4) The eradication activity of daptomycin, vancomycin, experimental acyl compounds and experimental acyl compounds along with fatty acids against biofilms of microorganisms was evaluated as described above. Briefly, bacteria were grown in tryptic soy broth (Becton Dickinson, USA) and biofilms were formed on the pegs of the lid of a 96-well dish immersed in bacterial cultures at 5×10^5 cfu/mL. […] After incubation at 37° C. for 24 hours, the peg-lids were washed and placed onto a new 96-well plate with fresh CAMHB in each well and sonicated for 5 minutes to disrupt the biofilm on the pegs, followed by a cfu assay to assess the number of viable bacteria in each well. To determine the minimum biofilm removal concentration, the 96-well plates were covered with new lids and incubated at 37° C. for 24 hours, and then the viable bacteria in each well were counted using the cfu assay.

[6] = tested on: biofilms of MRSA USA300; experiment: Biofilm eradication assay
Experimental: as §3, §4

[7] = tested on: MRSA USA300; experiment: Antibacterial activity assay (MIC by broth microdilution, MBC by subculture)
Experimental: The antimicrobial activity was based on MIC and MBC; MIC is the minimum inhibitory concentration and MBC is the minimum bactericidal concentration. The MIC of individual test agents against MRSA USA300 strains was determined using the broth microdilution method according to CLSI guidelines. Briefly, overnight bacterial cultures in LB medium were diluted 1:50 in fresh LB medium and incubated at 37° C. until reaching an OD600 of 0.5 to 0.6. Bacterial suspensions were diluted to a final concentration of 5×10^5 cfu/mL in fresh CAMHB and then exposed to each test agent at increasing doses in triplicate in 96-well plates for 24 hours at 37° C. The MIC of each agent was defined as the lowest concentration without visible bacterial growth. […] The lowest broth dilution that had no viable bacteria was considered the MBC.
Then, the combination effect was measured by calculating their corresponding fractional inhibitory concentration index (FICI) with the equation ΣFIC (FICi)=FICA+FICB=(CombA/MICA)+(CombB/MICB), where MICA and MICB are the MICs of drugs A and B alone, respectively, and CombA and CombB are the concentrations of drugs A and B in combination, respectively. […] was defined as an FICI≤0.5, no interaction was defined as an FICI>0.5-4.0, and antagonism was defined as an FICI>4.

[8] = tested on: S. aureus DAP-NS; experiment: Antibacterial activity assay (MIC, broth microdilution); settings: for MIC: Staphylococcus aureus
[9] = tested on: MRSA ATCC49476; experiment: as above; settings: for MIC: Staphylococcus aureus

O=C(Nc1ccc(Cl)c(C(F)(F)F)c1)C(CCCl)C(=O)Nc1ccc(Cl)c(C(F)(F)F)c1 [SC5005]
combination effect ([1]; MIC, +8 mg/L DHA): (Syn) (Synergy (Syn) was defined as an FICI≤0.5) | MIC ([1]; +8 mg/L DHA): 0.49 ng/mL (≈ 0.939 nM) | MIC ([1]; agent alone): 250 ng/mL (≈ 479 nM) | combination effect ([2]; MIC, +8 mg/L DHA): (Syn) (Synergy (Syn) was defined as an FICI≤0.5) | MIC ([2]; +8 mg/L DHA): 0.061 ng/mL (≈ 0.117 nM) | MIC ([2]; agent alone): 250 ng/mL (≈ 479 nM) | time to eradication of persister cells [3]: ≤ 24 h | time to eradication of persister cells [4]: ≤ 24 h | biofilm removing activity (in words) [5]: superior biofilm removing activity in comparison with daptomycin and vancomycin | biofilm removing activity (in words) ([6]; 24 hours, FIG. 2): superior biofilm removing activity in comparison with daptomycin and vancomycin | increase of the biofilm removing activity of SC5005 ([6]; DHA concentration 80 mg/L, strain not given): 32 times | MBC ([7]; +8 mg/L DHA): 7.8 ng/mL | MIC ([7]; +8 mg/L DHA): 0.0038 ng/mL | MIC ([7]; +8 mg/L DHA, MRSA USA300 (Table 4)): 0.015 ng/mL | combination effect ([7]; MIC, +8 mg/L DHA, MRSA USA300 (Table 4)): (Syn) (Synergy (Syn) was defined as an FICI≤0.5) | MBC ([7]; Staphylococcus aureus, MRSA / SC5005 / USA300, fatty acid 0 mg/L (SC5005 alone), read-out: MBC SC5005): 2000 ng/mL | MIC ([7]; Staphylococcus aureus, MRSA / SC5005 / USA300, fatty acid 0 mg/L (SC5005 alone), read-out: MIC SC5005): 250 ng/mL | MBC ([7]; Staphylococcus aureus, amide compound alone, read-out: MBC): 2000 ng/mL | MIC ([7]; Staphylococcus aureus, amide compound alone, read-out: MIC): 250 ng/mL | MIC ([7]; agent alone, MRSA USA300 (Table 4)): 250 ng/mL | combination effect ([8]; MIC, +8 mg/L DHA): (Syn) (Synergy (Syn) was defined as an FICI≤0.5) | MIC ([8]; +8 mg/L DHA): 0.0019 ng/mL (≈ 0.00364 nM) | MIC ([8]; agent alone): 250 ng/mL (≈ 479 nM) | combination effect ([9]; MIC, +8 mg/L DHA): (Syn) (Synergy (Syn) was defined as an FICI≤0.5) | MIC ([9]; +8 mg/L DHA): 0.00095 ng/mL (≈ 0.00182 nM) | MIC ([9]; agent alone): 250 ng/mL (≈ 479 nM)
